Experimental data published in patent publication US20260232767A1, “INTERLEUKIN-23 RECEPTOR ANTAGONIST PEPTIDES FOR USE IN THE TREATMENT OF PSORIASIS” (Janssen Pharmaceutica NV, priority 2023, published 2026).

Test system: subjects with moderate-to-severe plaque psoriasis
Experiment: Safety, adverse events, Example 2 through Week 56
Format: in vivo, human
Conditions: 100 mg BID
Excerpt: The LTE safety analysis was based on randomized participants in Example who entered the present long-term extension study and received at least one dose of study intervention (including a partial dose) during the study period.

CC(=O)NCCCC[C@@H]1NC(=O)[C@H](Cc2c[nH]c3c(C)cccc23)NC(=O)[C@H]([C@@H](C)O)NC(=O)[C@H](CC(N)=O)NC(=O)[C@@H](NC(C)=O)C(C)(C)SSC(C)(C)[C@@H](C(=O)N[C@@H](Cc2ccc(OCCN)cc2)C(=O)N[C@@H](Cc2ccc3ccccc3c2)C(=O)NC2(C(=O)N[C@@H](CCC(=O)O)C(=O)N[C@@H](CC(N)=O)C(=O)N[C@@H](Cc3cccnc3)C(=O)N(C)CC(N)=O)CCOCC2)NC1=O [IL-23 receptor antagonist peptide, Ac-[Pen]*-N-T-[W(7-Me)]-[Lys(Ac)]-[Pen]*-Phe[4-(2-aminoethoxy)]-[2-Nal]-[THP]-E-N-[3-Pal]-Sarc-NH2 (*[Pen]-[Pen]* formdisulfidebond)]
Subjects with treatment-emergent AE: Headache (Week 16-56): 0 | Subjects with treatment-emergent AE: Investigations (Week 16-56): 4 | Subjects with treatment-emergent AE: Meniscus injury (Week 16-56): 0 | Subjects with treatment-emergent AE: Sinusitis (Week 16-56): 0 | Subjects with treatment-emergent AE: Vomiting (Week 16-56): 0 | Subjects with treatment-emergent serious AE: Cardiac disorders (Week 16-56): 0 | Subjects with treatment-emergent serious AE: Cerebrovascular accident (Week 16-56): 0 | Subjects with treatment-emergent serious AE: Coronary artery disease (Week 16-56): 0 | Subjects with treatment-emergent serious AE: Diverticulitis (Week 16-56): 0 | Subjects with treatment-emergent serious AE: Foot deformity (Week 16-56): 0 | Subjects with treatment-emergent serious AE: General disorders and administration site conditions (Week 16-56): 0 | Subjects with treatment-emergent serious AE: Infections and infestations (Week 16-56): 0 | Subjects with treatment-emergent serious AE: Injury, poisoning and procedural complications (Week 16-56): 0 | Subjects with treatment-emergent serious AE: Intervertebral disc protrusion (Week 16-56): 0 | Subjects with treatment-emergent serious AE: Ligament injury (Week 16-56): 0 | Subjects with treatment-emergent serious AE: Musculoskeletal and connective tissue disorders (Week 16-56): 0 | Subjects with treatment-emergent serious AE: Nervous system disorders (Week 16-56): 0 | Subjects with treatment-emergent serious AE: Non-cardiac chest pain (Week 16-56): 0 | Subjects with treatment-emergent serious AE: Respiratory, thoracic and mediastinal disorders (Week 16-56): 0 | Subjects with treatment-emergent serious AE: Tonsillar hypertrophy (Week 16-56): 0 | Subjects with treatment-emergent serious AE: Ventricular dysfunction (Week 16-56): 0 | Acrochordon: number of subjects (through Week 56): 0 | Actinic keratosis: number of subjects (through Week 56): 0 | Alopecia: number of subjects (through Week 56): 0 | Asthenia: number of subjects (through Week 56): 0 | Asthma: number of subjects (through Week 56): 0 | Atrioventricular block first degree: number of subjects (through Week 56): 0 | Basal cell carcinoma: number of subjects (through Week 56): 0 | Blood and lymphatic system disorders: % of subjects (through Week 56): (2.4%) | Blood and lymphatic system disorders: number of subjects (through Week 56): 1 | Bronchitis chronic: number of subjects (through Week 56): 0 | Bundle branch block right: % of subjects (through Week 56): (2.4%) | Bundle branch block right: number of subjects (through Week 56): 1 | Cardiac disorders: % of subjects (through Week 56): (2.4%) | Cardiac disorders: number of subjects (through Week 56): 1 | Chills: number of subjects (through Week 56): 0 | Cholelithiasis: number of subjects (through Week 56): 0 | Chronic obstructive pulmonary disease: number of subjects (through Week 56): 0 | Coronary artery disease: number of subjects (through Week 56): 0 | Cough: % of subjects (through Week 56): (4.8%) | Cough: number of subjects (through Week 56): 2 | Decreased appetite: number of subjects (through Week 56): 0 | Depression: % of subjects (through Week 56): (2.4%) | Depression: number of subjects (through Week 56): 1 | Dermal cyst: number of subjects (through Week 56): 0 | Dermatitis acneiform: number of subjects (through Week 56): 0 | Dermatitis contact: % of subjects (through Week 56): (2.4%) | Dermatitis contact: number of subjects (through Week 56): 1 | Diabetes mellitus: number of subjects (through Week 56): 0 | Diffuse alopecia: number of subjects (through Week 56): 0 | Dysuria: number of subjects (through Week 56): 0 | Ear and labyrinth disorders: % of subjects (through Week 56): (2.4%) | Ear and labyrinth disorders: number of subjects (through Week 56): 1 | Endocrine disorders: number of subjects (through Week 56): 0 | Eye disorders: number of subjects (through Week 56): 0 | Eyelid skin dryness: number of subjects (through Week 56): 0 | Fatigue: % of subjects (through Week 56): (4.8%) | Fatigue: number of subjects (through Week 56): 2 | General disorders and administration site conditions: % of subjects (through Week 56): (9.5%) | General disorders and administration site conditions: number of subjects (through Week 56): 4 | Goiter: number of subjects (through Week 56): 0 | Haemochromatosis: number of subjects (through Week 56): 0 | Hand dermatitis: number of subjects (through Week 56): 0 | Hematuria: number of subjects (through Week 56): 0 | Hepatobiliary disorders: number of subjects (through Week 56): 0 | Hypercholesterolemia: number of subjects (through Week 56): 0 | Hyperglycemia: % of subjects (through Week 56): (4.8%) | Hyperglycemia: number of subjects (through Week 56): 2 | Hyperlipidemia: number of subjects (through Week 56): 0 | Hypertension: % of subjects (through Week 56): (4.8%) | Hypertension: number of subjects (through Week 56): 2 | Hypertransaminasemia: number of subjects (through Week 56): 0 | Hypertriglyceridemia: number of subjects (through Week 56): 0 | Hypoacusis: % of subjects (through Week 56): (2.4%) | Hypoacusis: number of subjects (through Week 56): 1 | Immune system disorders: % of subjects (through Week 56): (2.4%) | Immune system disorders: number of subjects (through Week 56): 1 | Influenza like illness: number of subjects (through Week 56): 0 | Insomnia: number of subjects (through Week 56): 0 | Intertrigo: % of subjects (through Week 56): (2.4%) | Intertrigo: number of subjects (through Week 56): 1 | Ketonuria: % of subjects (through Week 56): (2.4%) | Ketonuria: number of subjects (through Week 56): 1 | Leukocyturia: number of subjects (through Week 56): 0 | Leukopenia: number of subjects (through Week 56): 0 | Libido decreased: number of subjects (through Week 56): 0 | Liver disorder: number of subjects (through Week 56): 0 | Lymphopenia: number of subjects (through Week 56): 0 | Menopause: number of subjects (through Week 56): 0 | Metabolism and nutrition disorders: % of subjects (through Week 56): (4.8%) | Metabolism and nutrition disorders: number of subjects (through Week 56): 2 | Neoplasms benign, malignant and unspecified (incl cysts and polyps): % of subjects (through Week 56): (4.8%) | Neoplasms benign, malignant and unspecified (incl cysts and polyps): number of subjects (through Week 56): 2 | Nephrolithiasis: number of subjects (through Week 56): 0 | Neutropenia: number of subjects (through Week 56): 0 | Night sweats: number of subjects (through Week 56): 0 | Non-cardiac chest pain: number of subjects (through Week 56): 0 | Ocular cyst: number of subjects (through Week 56): 0 | Oedema peripheral: % of subjects (through Week 56): (4.8%) | Oedema peripheral: number of subjects (through Week 56): 2 | Oropharyngeal pain: number of subjects (through Week 56): 0 | Procedural pain: % of subjects (through Week 56): (2.4%) | Procedural pain: number of subjects (through Week 56): 1 | Productive cough: % of subjects (through Week 56): (2.4%) | Productive cough: number of subjects (through Week 56): 1 | Proteinuria: % of subjects (through Week 56): (2.4%) | Proteinuria: number of subjects (through Week 56): 1 | Pruritus: number of subjects (through Week 56): 0 | Psoriasis: % of subjects (through Week 56): (4.8%) | Psoriasis: number of subjects (through Week 56): 2 | Psychiatric disorders: % of subjects (through Week 56): (2.4%) | Psychiatric disorders: number of subjects (through Week 56): 1 | Pyrexia: % of subjects (through Week 56): (2.4%) | Pyrexia: number of subjects (through Week 56): 1 | Rash pruritic: number of subjects (through Week 56): 0 | Renal and urinary disorders: % of subjects (through Week 56): (4.8%) | Renal and urinary disorders: number of subjects (through Week 56): 2 | Renal mass: number of subjects (through Week 56): 0 | Respiratory, thoracic and mediastinal disorders: % of subjects (through Week 56): (9.5%) | Respiratory, thoracic and mediastinal disorders: number of subjects (through Week 56): 4 | Retinal vein occlusion: number of subjects (through Week 56): 0
